{
  "source": "ChEMBL document CHEMBL1275474",
  "about": "“In vitro activity of tigecycline against multidrug-resistant Acinetobacter baumannii and selection of tigecycline-amikacin synergy” (2008)",
  "key": {"Acinetobacter baumannii [1]": {"system": "Acinetobacter baumannii", "test": "Antimicrobial activity against Acinetobacter baumannii isolate 853 by microdilution method", "assay_type": "functional"}, "Acinetobacter baumannii [2]": {"system": "Acinetobacter baumannii", "test": "Antimicrobial activity against Acinetobacter baumannii isolate 1198 by microdilution method", "assay_type": "functional"}, "Acinetobacter baumannii [3]": {"system": "Acinetobacter baumannii", "test": "Antimicrobial activity against Acinetobacter baumannii isolate 1826 by microdilution method", "assay_type": "functional"}, "Acinetobacter baumannii [4]": {"system": "Acinetobacter baumannii", "test": "Antimicrobial activity against Acinetobacter baumannii by microdilution method", "assay_type": "functional"}, "Acinetobacter baumannii [5]": {"system": "Acinetobacter baumannii", "test": "Antimicrobial activity against Acinetobacter baumannii assessed as susceptible isolates by microdilution method", "assay_type": "functional"}, "Acinetobacter baumannii [6]": {"system": "Acinetobacter baumannii", "test": "Bactericidal activity against Acinetobacter baumannii isolate 1198 at 16 ug/ml after 24 hrs by time kill analysis", "assay_type": "functional, organism-based"}, "Acinetobacter baumannii [7]": {"system": "Acinetobacter baumannii", "test": "Antimicrobial activity against Acinetobacter baumannii by microdilution method in presence of beta-lactamase inhibitor Sulbactam", "assay_type": "functional"}, "Acinetobacter baumannii [8]": {"system": "Acinetobacter baumannii", "test": "Antimicrobial activity against Acinetobacter baumannii by microdilution method in presence of beta-lactamase inhibitor Tazobactam", "assay_type": "functional"}, "Acinetobacter baumannii [9]": {"system": "Acinetobacter baumannii", "test": "Bactericidal activity against Acinetobacter baumannii isolate 1826 at 8 ug/ml up to 4 hrs by time kill analysis", "assay_type": "functional, organism-based"}, "Acinetobacter baumannii [10]": {"system": "Acinetobacter baumannii", "test": "Bactericidal activity against Acinetobacter baumannii isolate 1826 at 8 ug/ml after 4 hrs by time kill analysis", "assay_type": "functional, organism-based"}, "Acinetobacter baumannii [11]": {"system": "Acinetobacter baumannii", "test": "Bactericidal activity against Acinetobacter baumannii isolate 1826 at 2 ug/ml up to 4 hrs by time kill analysis", "assay_type": "functional, organism-based"}, "Acinetobacter baumannii [12]": {"system": "Acinetobacter baumannii", "test": "Bactericidal activity against Acinetobacter baumannii isolate 1826 at 2 ug/ml after 4 hrs by time kill analysis", "assay_type": "functional, organism-based"}, "Acinetobacter baumannii [13]": {"system": "Acinetobacter baumannii", "test": "Bactericidal activity against Acinetobacter baumannii isolate 853 at 0.06 ug/ml at 6 hrs by time kill analysis", "assay_type": "functional, organism-based"}, "Acinetobacter baumannii [14]": {"system": "Acinetobacter baumannii", "test": "Bactericidal activity against Acinetobacter baumannii isolate 1198 at 1 ug/ml after 24 hrs by time kill analysis", "assay_type": "functional, organism-based"}, "Acinetobacter baumannii [15]": {"system": "Acinetobacter baumannii", "test": "Bactericidal activity against Acinetobacter baumannii isolate 1198 at 2 ug/ml after 24 hrs by time kill analysis", "assay_type": "functional, organism-based"}, "Acinetobacter baumannii [16]": {"system": "Acinetobacter baumannii", "test": "Bactericidal activity against Acinetobacter baumannii isolate 853 at 0.5 ug/ml at 6 hrs by time kill analysis", "assay_type": "functional, organism-based"}},
  "note": "The source made the active and inactive calls. The calls are words filed in the database; no cut-off is given here.",
  "data": [
    {"compound": "NCC[C@H](O)C(=O)N[C@@H]1C[C@H](N)[C@@H](O[C@H]2O[C@H](CN)[C@@H](O)[C@H](O)[C@H]2O)[C@H](O)[C@H]1O[C@H]1O[C@H](CO)[C@@H](O)[C@H](N)[C@H]1O", "note": "[AMIKACIN]", "values": [
      {"measurement": "MIC", "setting": "Acinetobacter baumannii [1]", "result": "≤ 0.5", "unit": "µg/mL"},
      {"measurement": "MIC", "setting": "Acinetobacter baumannii [2]", "result": "> 128", "unit": "µg/mL"},
      {"measurement": "MIC", "setting": "Acinetobacter baumannii [3]", "result": 2, "unit": "µg/mL"},
      {"measurement": "MIC50", "setting": "Acinetobacter baumannii [4]", "result": 8, "unit": "µg/mL"},
      {"measurement": "MIC90", "setting": "Acinetobacter baumannii [4]", "result": "> 128", "unit": "µg/mL"},
      {"measurement": "Activity", "setting": "Acinetobacter baumannii [5]", "result": 53, "unit": "%"},
      {"measurement": "Activity", "setting": "Acinetobacter baumannii [6]", "result": "inactive"}
    ]},
    {"compound": "CC1(C)S[C@@H]2[C@H](NC(=O)[C@H](N)c3ccccc3)C(=O)N2[C@H]1C(=O)O", "note": "[AMPICILLIN]", "values": [
      {"measurement": "MIC50", "setting": "Acinetobacter baumannii [7]", "result": 16, "unit": "µg/mL"},
      {"measurement": "MIC90", "setting": "Acinetobacter baumannii [7]", "result": 128, "unit": "µg/mL"},
      {"measurement": "Activity", "setting": "Acinetobacter baumannii [5]", "result": 31, "unit": "%"}
    ]},
    {"compound": "CC(C)(O/N=C(\\C(=O)N[C@@H]1C(=O)N2C(C(=O)[O-])=C(C[n+]3ccccc3)CS[C@H]12)c1csc(N)n1)C(=O)O", "note": "[CEFTAZIDIME]", "values": [
      {"measurement": "MIC50", "setting": "Acinetobacter baumannii [4]", "result": 64, "unit": "µg/mL"},
      {"measurement": "MIC90", "setting": "Acinetobacter baumannii [4]", "result": "> 64", "unit": "µg/mL"},
      {"measurement": "Activity", "setting": "Acinetobacter baumannii [5]", "result": 17, "unit": "%"}
    ]},
    {"compound": "C[C@@H](O)[C@H]1C(=O)N2C(C(=O)O)=C(SCCNC=N)C[C@H]12", "note": "[IMIPENEM ANHYDROUS]", "values": [
      {"measurement": "MIC50", "setting": "Acinetobacter baumannii [4]", "result": 1, "unit": "µg/mL"},
      {"measurement": "MIC90", "setting": "Acinetobacter baumannii [4]", "result": 16, "unit": "µg/mL"},
      {"measurement": "Activity", "setting": "Acinetobacter baumannii [5]", "result": 86, "unit": "%"}
    ]},
    {"compound": "C[C@H]1COc2c(N3CCN(C)CC3)c(F)cc3c(=O)c(C(=O)O)cn1c23.C[C@H]1COc2c(N3CCN(C)CC3)c(F)cc3c(=O)c(C(=O)O)cn1c23.O", "note": "[LEVOFLOXACIN]", "values": [
      {"measurement": "MIC50", "setting": "Acinetobacter baumannii [4]", "result": 8, "unit": "µg/mL"},
      {"measurement": "MIC90", "setting": "Acinetobacter baumannii [4]", "result": 16, "unit": "µg/mL"},
      {"measurement": "Activity", "setting": "Acinetobacter baumannii [5]", "result": 35, "unit": "%"}
    ]},
    {"compound": "CN(C)c1ccc(O)c2c1C[C@H]1C[C@H]3[C@H](N(C)C)C(O)=C(C(N)=O)C(=O)[C@@]3(O)C(O)=C1C2=O", "note": "[MINOCYCLINE]", "values": [
      {"measurement": "MIC50", "setting": "Acinetobacter baumannii [4]", "result": 2, "unit": "µg/mL"},
      {"measurement": "MIC90", "setting": "Acinetobacter baumannii [4]", "result": 8, "unit": "µg/mL"},
      {"measurement": "Activity", "setting": "Acinetobacter baumannii [5]", "result": 78, "unit": "%"}
    ]},
    {"compound": "CCN1CCN(C(=O)N[C@@H](C(=O)N[C@@H]2C(=O)N3[C@@H]2SC(C)(C)[C@@H]3C(=O)O)c2ccccc2)C(=O)C1=O", "note": "[PIPERACILLIN]", "values": [
      {"measurement": "MIC50", "setting": "Acinetobacter baumannii [8]", "result": "> 128", "unit": "µg/mL"},
      {"measurement": "MIC90", "setting": "Acinetobacter baumannii [8]", "result": "> 128", "unit": "µg/mL"},
      {"measurement": "Activity", "setting": "Acinetobacter baumannii [5]", "result": 9, "unit": "%"}
    ]},
    {"compound": "CN(C)c1cc(NC(=O)CNC(C)(C)C)c(O)c2c1C[C@H]1C[C@H]3[C@H](N(C)C)C(O)=C(C(N)=O)C(=O)[C@@]3(O)C(O)=C1C2=O", "note": "[TIGECYCLINE]", "values": [
      {"measurement": "MIC", "setting": "Acinetobacter baumannii [1]", "result": 0.12, "unit": "µg/mL"},
      {"measurement": "MIC", "setting": "Acinetobacter baumannii [2]", "result": 4, "unit": "µg/mL"},
      {"measurement": "MIC", "setting": "Acinetobacter baumannii [3]", "result": 64, "unit": "µg/mL"},
      {"measurement": "MIC", "setting": "Acinetobacter baumannii [4]", "result": 0.06, "unit": "µg/mL"},
      {"measurement": "Activity", "setting": "Acinetobacter baumannii [9]", "result": "Active"},
      {"measurement": "Activity", "setting": "Acinetobacter baumannii [10]", "result": "inactive"},
      {"measurement": "Activity", "setting": "Acinetobacter baumannii [11]", "result": "Active"},
      {"measurement": "Activity", "setting": "Acinetobacter baumannii [12]", "result": "inactive"},
      {"measurement": "Activity", "setting": "Acinetobacter baumannii [13]", "result": "inactive"},
      {"measurement": "Activity", "setting": "Acinetobacter baumannii [14]", "result": "inactive"},
      {"measurement": "Activity", "setting": "Acinetobacter baumannii [15]", "result": "inactive"}
    ]},
    {"compound": "GENTAMICIN", "values": [
      {"measurement": "MIC50", "setting": "Acinetobacter baumannii [4]", "result": "> 32", "unit": "µg/mL"},
      {"measurement": "MIC90", "setting": "Acinetobacter baumannii [4]", "result": "> 32", "unit": "µg/mL"},
      {"measurement": "Activity", "setting": "Acinetobacter baumannii [5]", "result": 16, "unit": "%"}
    ]},
    {"compound": "POLYMYXIN B", "values": [
      {"measurement": "MIC", "setting": "Acinetobacter baumannii [1]", "result": 1, "unit": "µg/mL"},
      {"measurement": "MIC", "setting": "Acinetobacter baumannii [2]", "result": 1, "unit": "µg/mL"},
      {"measurement": "MIC", "setting": "Acinetobacter baumannii [3]", "result": 2, "unit": "µg/mL"},
      {"measurement": "MIC50", "setting": "Acinetobacter baumannii [4]", "result": 1, "unit": "µg/mL"},
      {"measurement": "MIC90", "setting": "Acinetobacter baumannii [4]", "result": 2, "unit": "µg/mL"},
      {"measurement": "Activity", "setting": "Acinetobacter baumannii [5]", "result": 99, "unit": "%"},
      {"measurement": "Activity", "setting": "Acinetobacter baumannii [16]", "result": "inactive"}
    ]}
  ]
}
